What was measured:
[1] = biological target: T1, CDK5/p35 (Homo sapiens, UniProt Q00535); assay: CDK5/p35 kinase inhibition (33P-ATP, histone H1); format: biochemical; details: 0.15 μM ATP
T1 construct: purchased ProQinase GmbH
Experimental: CDK2/Cyclin E kinase was produced in Sf9 insect cells via baculoviral infection and purified on a NiNTA column (Qiagen). […] CDK5/p35 was purchased from ProQinase GmbH.
(§1) The reactions were stopped by adding 5 μL of 3% aq H3PO4. Aliquots were spotted onto P-81 phosphocellulose (Whatman), washed 3× with 0.5% aq H3PO4 and finally air-dried.

[2] = biological target: T2, CDK2/Cyclin E (Homo sapiens, UniProt P24941); assay: CDK2/Cyclin E kinase inhibition (33P-ATP, histone H1); format: biochemical; details: 15 μM ATP
T2 construct: made in house; host or cells: Sf9 insect cells (baculovirus)
Experimental: CDK2/Cyclin E kinase was produced in Sf9 insect cells via baculoviral infection and purified on a NiNTA column (Qiagen). The kinase reactions were assayed with 1 mg/mL histone H1 in the presence of 15 μM ATP, 0.05 μCi [γ-^33P]ATP and of the test compound in a final volume of 10 μL, all in a reaction buffer (60 mM HEPES-NaOH, pH 7.5, 3 mM MgCl2, 3 mM MnCl2, 3 μM Na-orthovanadate, 1.2 mM DTT, 2.5 μg/50 μl PEG20.000). CDK5/p35 was purchased from ProQinase GmbH. The kinase reactions were assayed with 1 mg/mL histone H1 in the presence of 0.15 μM ATP, 0.05 μCi [γ-^33P]ATP and of the test compound in a final volume of 10 μL, all in a reaction buffer (60 mM HEPES-NaOH, pH 7.5, 3 mM MgCl2, 3 mM MnCl2, 3 μM Na-orthovanadate, 1.2 mM DTT, 2.5 μg/50 μl PEG20.000).
as §1

[3] = test system: K562 (human chronic myelogenous leukaemia); assay: MTT cytotoxicity assay, leukemic cell line K562; format: cell-based; details: Homo sapiens, K562, 72 h, three days
Description: (§2) Cytotoxicity of the compounds is the major property determining their antileukemic efficacy in vivo. One of the parameters used, as the basis for cytotoxicity assays, is the metabolic activity of viable cells. For example, a microtiter assay, which uses (3-(4,5-dimethylthiazol-2-yl)-2,5-diphenyltetrazolium bromide (MTT), is widely used to quantitate cell proliferation and cytotoxicity. This assay is widely used in drug screening programs and in chemosensitivity testing. Because only metabolically active living cells reduce MTT to correspond purple formazan dye, these assays detect viable cells exclusively. The quantity of reduced MTT corresponds to the number of vital cells in the culture.
(§3) The compounds were assayed using the following leukemic cell lines: K562 (human chronic myelogenous leukaemia), HL60 (human promyelocytic leukaemia), CEM (human lymphoblastoid leukaemia), THP1 (human monocytic cell line), MV4; 11 (acute myelocytic leukemia). All cell lines were grown in RPMI medium supplemented with fetal bovine serum and L-glutamine and maintained at 37° C. in a humidified atmosphere with 5% CO2. For cytotoxicity assays, 2000-5000 cells were seeded into each well of 96 well plate, allowed to stabilize for at least 8 h and then tested compounds were added at various concentrations ranging from 100 to 0.01 μM in triplicates. After three days, MTT solution (5 mg/ml; Sigma, St. Louis, USA) was added to cells and medium was replaced with DMSO after five hours. The absorbance was measured at 620 nm by employing a microplate reader. MTT assays were repeated 3 times for each drug application and untreated cells were used as reference.

[4] = test system: THP1 (human monocytic cell line); assay: MTT cytotoxicity assay, leukemic cell line THP1; format: cell-based; details: Homo sapiens, THP-1, 72 h, three days
Description: as §2, §3

[5] = test system: HL60 (human promyelocytic leukaemia); assay: MTT cytotoxicity assay, leukemic cell line HL60; format: cell-based; details: Homo sapiens, HL-60, 72 h, three days
Description: as §2, §3

[6] = test system: HUVECs (human umbilical vein endothelial cells); assay: HUVEC proliferation assay (crystal violet); format: cell-based; details: Homo sapiens, HUVEC, 72 h, read-out: Inhibition of proliferation (EC50)
Experimental: (§4) To verify that novel compounds have anti-vascularisation properties, we analyzed their influence on the proliferation and migration of HUVECs. HUVECs (human umbilical vein endothelial cells) were purchased from Promocell (Heidelberg, Germany) and cultured in endothelial cell growth medium (ECGM, Promocell, Heidelberg, Germany) containing 10% FCS (Biochrom, Berlin, Germany). Experiments were performed using cells at passage 3.
For proliferation assay, 1.5×10^3 HUVECs were cultured for 24 h. Afterwards, cells were either left untreated or treated with novel compounds for 72 h. Proliferation assay was performed using crystal violet as described previously (Koltermann et al. 2007, Cell Mol. Life Sci. 64:1715-1722).

[7] = test system: PLC/PRF/5 (liver hepatoma); assay: MTT cytotoxicity assay, solid cancer cell line PLC/PRF/5; format: cell-based; details: Homo sapiens, PLC-PRF-5, 72 h, three days
Experimental: as §3, with “following” for “following leukemic”, “G361 (malignant melanoma), MCF7 (breast adenocarcinoma), PLC/PRF/5 (liver hepatoma), PANC-1 (pancreatic carcinoma) and HCT116 (colon carcinoma).” for “K562 (human chronic myelogenous leukaemia), HL60 (human promyelocytic leukaemia), CEM (human lymphoblastoid leukaemia), THP1 (human monocytic cell line), MV4; 11 (acute myelocytic leukemia).”, “DMEM” for “RPMI”, “4000-10000” for “2000-5000”, “of a” for “of”, “16” for “8”

[8] = test system: breast carcinoma cell line MCF7; assay: Cell cycle profile by BrdU/propidium iodide flow cytometry; format: cell-based; details: asynchronously growing MCF7, 24 h, FIG. 1
Experimental: Sub-confluent cells were treated with test compounds at different concentrations for 24 h. The cultures were pulse-labeled with […] 5-bromo-20-deoxyuridine (BrdU) for 30 min at 37° C. prior to harvesting. The cells were then washed in PBS, fixed with 70% ethanol, and denatured in 2 M HCl. Following neutralization, the cells were stained with anti-BrdU fluorescein-labeled antibodies, washed, stained with propidium iodide and analyzed by flow cytometry using a 488 nm laser

[9] = test system: CEM (human lymphoblastoid leukaemia); assay: MTT cytotoxicity assay, leukemic cell line CEM; format: cell-based; details: Homo sapiens, 72 h, three days
Description: as §2, §3

[10] = test system: G361 (malignant melanoma); assay: MTT cytotoxicity assay, solid cancer cell line G361; format: cell-based; details: Homo sapiens, G-361, 72 h, three days
Experimental: as §3, with “following” for “following leukemic”, “G361 (malignant melanoma), MCF7 (breast adenocarcinoma), PLC/PRF/5 (liver hepatoma), PANC-1 (pancreatic carcinoma) and HCT116 (colon carcinoma).” for “K562 (human chronic myelogenous leukaemia), HL60 (human promyelocytic leukaemia), CEM (human lymphoblastoid leukaemia), THP1 (human monocytic cell line), MV4; 11 (acute myelocytic leukemia).”, “DMEM” for “RPMI”, “4000-10000” for “2000-5000”, “of a” for “of”, “16” for “8”

[11] = test system: MV4;11 (acute myelocytic leukemia); assay: MTT cytotoxicity assay, leukemic cell line MV4;11; format: cell-based; details: Homo sapiens, MV4-11, 72 h, three days
Description: as §2, §3

[12] = test system: PANC-1 (pancreatic carcinoma); assay: MTT cytotoxicity assay, solid cancer cell line PANC-1; format: cell-based; details: Homo sapiens, PANC-1, 72 h, three days
Experimental: as §3, with “following” for “following leukemic”, “G361 (malignant melanoma), MCF7 (breast adenocarcinoma), PLC/PRF/5 (liver hepatoma), PANC-1 (pancreatic carcinoma) and HCT116 (colon carcinoma).” for “K562 (human chronic myelogenous leukaemia), HL60 (human promyelocytic leukaemia), CEM (human lymphoblastoid leukaemia), THP1 (human monocytic cell line), MV4; 11 (acute myelocytic leukemia).”, “DMEM” for “RPMI”, “4000-10000” for “2000-5000”, “of a” for “of”, “16” for “8”

[13] = test system: HCT116 (colon carcinoma); assay: MTT cytotoxicity assay, solid cancer cell line HCT116; format: cell-based; details: Homo sapiens, HCT-116, 72 h, three days
Experimental: as §3, with “following” for “following leukemic”, “G361 (malignant melanoma), MCF7 (breast adenocarcinoma), PLC/PRF/5 (liver hepatoma), PANC-1 (pancreatic carcinoma) and HCT116 (colon carcinoma).” for “K562 (human chronic myelogenous leukaemia), HL60 (human promyelocytic leukaemia), CEM (human lymphoblastoid leukaemia), THP1 (human monocytic cell line), MV4; 11 (acute myelocytic leukemia).”, “DMEM” for “RPMI”, “4000-10000” for “2000-5000”, “of a” for “of”, “16” for “8”

[14] = test system: MCF7 (breast adenocarcinoma); assay: MTT cytotoxicity assay, solid cancer cell line MCF7; format: cell-based; details: Homo sapiens, MCF7, 72 h, three days
Experimental: as §3, with “following” for “following leukemic”, “G361 (malignant melanoma), MCF7 (breast adenocarcinoma), PLC/PRF/5 (liver hepatoma), PANC-1 (pancreatic carcinoma) and HCT116 (colon carcinoma).” for “K562 (human chronic myelogenous leukaemia), HL60 (human promyelocytic leukaemia), CEM (human lymphoblastoid leukaemia), THP1 (human monocytic cell line), MV4; 11 (acute myelocytic leukemia).”, “DMEM” for “RPMI”, “4000-10000” for “2000-5000”, “of a” for “of”, “16” for “8”

[15] = test system: HUVECs (human umbilical vein endothelial cells); assay: HUVEC migration (scratch) assay; format: cell-based; details: 16 h, read-out: Inhibition of migration (EC50)
Experimental: as §4
For migration assay, confluent HUVECs were scratched with a pipette tip and immediately treated with either starvation medium M199 (serum-free, negative control; PAN Biotech) or full endothelial cell growth medium (positive control). After 16 h, cells were fixed with 3% formaldehyde and images were taken using the TILLvisON system (Lochham, Germany) connected to an Axiovert 200 microscope (Zeiss, Germany). Evaluation of pictures was made by S.CO LifeScience (Garching, Germany). Migration was quantified as the ratio of the area covered with cells and the area of the cell free wound.

T1 sequence (Q00535 whole entry): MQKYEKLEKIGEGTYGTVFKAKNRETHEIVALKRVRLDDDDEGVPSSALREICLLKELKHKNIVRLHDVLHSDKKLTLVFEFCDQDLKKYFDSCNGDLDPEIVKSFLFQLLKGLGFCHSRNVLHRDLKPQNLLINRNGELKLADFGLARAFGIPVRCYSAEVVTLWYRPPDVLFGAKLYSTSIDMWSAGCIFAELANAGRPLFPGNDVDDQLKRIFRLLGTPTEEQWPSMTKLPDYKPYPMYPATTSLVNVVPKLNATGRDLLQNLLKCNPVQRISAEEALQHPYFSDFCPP
T1 sequence (Q15078 whole entry partner): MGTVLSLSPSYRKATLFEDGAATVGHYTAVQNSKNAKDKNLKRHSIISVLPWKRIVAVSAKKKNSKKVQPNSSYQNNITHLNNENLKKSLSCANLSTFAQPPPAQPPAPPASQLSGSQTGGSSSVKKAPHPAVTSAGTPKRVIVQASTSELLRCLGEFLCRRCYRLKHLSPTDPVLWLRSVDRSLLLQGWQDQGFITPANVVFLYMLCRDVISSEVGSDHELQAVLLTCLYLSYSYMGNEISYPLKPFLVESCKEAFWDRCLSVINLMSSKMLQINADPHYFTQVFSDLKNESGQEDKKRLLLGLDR

IC50 [1] [µM]	IC50 [2] [µM]	SMILES	IC50 [3] [µM]	IC50 [4] [µM]	IC50 [5] [µM]	EC50 [6] [µM]	IC50 [7] [µM]	effect on the cell cycle of MCF7 [8]	IC50 [9] [µM]	IC50 [10] [µM]	IC50 [11] [µM]	IC50 [12] [µM]	IC50 [13] [µM]	IC50 [14] [µM]	EC50 [15] [µM]
0.18	0.042	CC(C)c1[nH]nc2c(NCc3ccc(-c4ccccn4)cc3)nc(N3CCCCC3)nc12 [Compound 14]	–	–	–	–	–	–	–	–	–	–	–	–	–
0.114	–	CC(C)c1[nH]nc2c(NCc3ccc(-c4ccccn4)cc3)nc(N3CCSCC3)nc12 [Compound 15]	0.59	0.31	0.6	0.153	0.2	potently arrested cells in S, G2 and M phases	0.23	0.42	0.87	0.34	0.69	0.53	–
0.038	0.027	CC(C)c1n[nH]c2c(NCc3ccc(-c4ccccn4)cc3)nc(NCCN)nc12 [Compound 40]	0.34	0.11	0.22	–	–	–	0.14	–	0.25	–	–	–	–
–	0.021	CC(C)c1[nH]nc2c(NCc3ccc(-c4ccccn4)cc3)nc(NC[C@@H](C)O)nc12 [Compound 27]	0.06	0.03	0.02	0.033	0.04	–	0.01	0.08	0.06	0.07	0.1	0.03	0.035
0.0149	0.039	CC(C)c1[nH]nc2c(NCc3ccc(-c4ccccn4)cc3)nc(NCCCO)nc12 [Compound 29]	0.1	0.14	0.18	–	–	–	0.09	–	0.27	–	–	–	–
–	0.098	CC[C@@H](CO)Nc1nc(NCc2ccc(-c3ccccn3)cc2)c2n[nH]c(C(C)C)c2n1 [Compound 84]	–	–	–	–	–	potently arrested cells in S, G2 and M phases	–	–	–	–	–	–	–
0.119	–	CC(C)c1[nH]nc2c(NCc3ccc(-c4ccccn4)cc3)nc(N3CCNCC3)nc12 [Compound 13]	0.02	0.03	0.02	0.009	0.05	–	0.01	0.02	0.04	0.06	0.03	0.02	0.026

From patent US9957273B2, “5-substituted 7- [4-(2-pyridyl)phenylmethylamino] -3-isopropylpyrazolo4,3-D]pyrimidine derivatives, use thereof as medicaments, and pharmaceutical compositions” (USTAV EXPERIMENTALNI BOTANIKY AV CR, V.V.I., priority 2015, dated 2018)
